Nine compounds from patent publication US5147871A, “Anti-bacterial cephalosporin compounds” (Hoffmann La-Roche, Inc., priority 1991, dated 1992) can be followed below.

Common to all, as to assay type: cell-based
One assay has as its system S. marcescens SM. The experiment in a line: In vitro MIC, Broth Dilution Method, S. marcescens SM. To be noted: Serratia marcescens. The source says:
(§1) The in vitro activity of the compounds of the present invention as measured by the Minimum Inhibitory Concentration in micrograms/ml utilizing the Agar Well Diffusion Method or Broth Dilution Method against a variety of Gram-positive and Gram-negative organisms is as follows:
(§2) In vitro MIC (μg/ml) Broth Dilution Method

In another assay the test system is K. pneumoniae A. The experiment in a line: In vitro MIC, Broth Dilution Method, K. pneumoniae A. To be noted: Klebsiella pneumoniae.
The test system of the next assay is E. cloacae 7099. Put plainly: In vitro MIC, Broth Dilution Method, E. cloacae 7099. To be noted: Enterobacter cloacae.
In another assay the test system is S. aureus Smith. Put plainly: In vitro MIC, Broth Dilution Method, S. aureus Smith. To be noted: Staphylococcus aureus.
A further assay deals with E. coli 48. The experiment in a line: In vitro MIC, Broth Dilution Method, E. coli 48. To be noted: Escherichia coli.
For a further assay, the system named is P. aeruginosa 503-56. Put plainly: In vitro MIC, Broth Dilution Method, P. aeruginosa 503-56. To be noted: Pseudomonas aeruginosa, 50356.
Excerpt: as §1, §2

The next assay relates to P. vulgaris ATCC 6380. The experiment in a line: In vitro MIC, Broth Dilution Method, P. vulgaris ATCC 6380. To be noted: Proteus vulgaris.
Excerpt: as §1, §2

In the next assay the test system is P. mirabilis 190. The experiment in a line: In vitro MIC, Broth Dilution Method, P. mirabilis 190. To be noted: Proteus mirabilis.
The subject of a further assay is E. cloacae 9570A. The experiment in a line: In vitro MIC, Broth Dilution Method, E. cloacae 9570A. To be noted: Enterobacter cloacae.
Excerpt: as §1, §2

In a further assay the test system is E. cloacae 214. Put plainly: In vitro MIC, Broth Dilution Method, E. cloacae 214. To be noted: Enterobacter cloacae.
Excerpt: as §1, §2

The next assay has as its system P. aeruginosa Stone 130. The experiment in a line: In vitro MIC, Broth Dilution Method, P. aeruginosa Stone 130. To be noted: Pseudomonas aeruginosa, STONE130.
Excerpt: as §1, §2

In a further assay the test system is S. aureus 95. Put plainly: In vitro MIC, Broth Dilution Method, S. aureus 95. To be noted: Staphylococcus aureus.
Excerpt: as §1, §2

In a further assay the test system is E. cloacae 2367-2. Put plainly: In vitro MIC, Broth Dilution Method, E. cloacae 2367-2. To be noted: Enterobacter cloacae, 23672.
Excerpt: as §1, §2

In another assay the test system is E. cloacae 948-1. Put plainly: In vitro MIC, Broth Dilution Method, E. cloacae 948-1. To be noted: Enterobacter cloacae, 9481.
Excerpt: as §1, §2

Setting [1] is: ATCC6380, P. vulgaris ATCC 6380, Broth Dilution Method, read-out: In vitro MIC.

Counter-ions that a name gives are not always drawn. Like-named read-outs stand apart in the source and are kept apart here.

In the case of `CCn1cc(C(=O)OCC2=C(C(=O)O)N3C(=O)[C@@H](NC(=O)COc4ccccc4)[C@H]3SC2)c(=O)c2ccc(C)nc21` [Compound A, [6R-(6alpha,7beta)]-3-[[[(1-Ethyl-1,4-dihydro-7-methyl-4-oxo-1,8-naphthydrin-3-yl)carbonyl]oxy]methyl]-8-oxo-7-[(phenoxyacetyl)amino]-5-thia-1-azabicyclo[4.2.0]oct-2-ene-2-carboxylic acid hydrate], the MIC in the assay on S. marcescens SM is 16 µg/mL; in the assay with K. pneumoniae A it was 16 µg/mL; in the assay with E. cloacae 7099 it was 16 µg/mL; against S. aureus Smith, 0.25 µg/mL; against E. coli 48, 32 µg/mL; in the assay with P. aeruginosa 503-56, 128 µg/mL. Further, the minimal inhibitory concentration (MIC) amounted to 8 µg/mL in the assay with P. vulgaris ATCC 6380 (setting [1]); 8 µg/mL against P. mirabilis 190; 64 µg/mL in the assay on E. cloacae 9570A; 128 µg/mL in the assay on E. cloacae 214; 128 µg/mL against P. aeruginosa Stone 130.

For the compound `CCn1cc(C(=O)OCC2=C(C(=O)O)N3C(=O)[C@@H](NC(=O)COc4ccccc4)[C@H]3SC2)c(=O)c2cc3c(cc21)OCO3` [Compound B, [6R-(6alpha,7beta)]-3-[[[(5-Ethyl-5,8-dihydro-8-oxo-1,3-dioxolo[4,5-g]quinolin-7-yl)carbonyl]oxy]methyl]-8-oxo-7-[(phenoxyacetyl)amino]-5-thia-1-azabicyclo[4.2.0]oct-2-ene-2-carboxylic acid monosodium salt], the minimum inhibitory concentration (MIC) with S. marcescens SM turned out to be 1 µg/mL; against K. pneumoniae A, 1 µg/mL; in the assay on S. aureus Smith, 0.25 µg/mL; with S. aureus 95 it was 4 µg/mL; in the assay on E. coli 48 it was 2 µg/mL; in the assay with P. aeruginosa 503-56, 64 µg/mL. Further, the MIC in the assay on P. vulgaris ATCC 6380 (setting [1]) was determined as 0.5 µg/mL; against E. cloacae 2367-2, 1 µg/mL; against E. cloacae 9570A, 2 µg/mL; against E. cloacae 214 it was 2 µg/mL; in the assay on P. aeruginosa Stone 130, 32 µg/mL; against E. cloacae 948-1, 2 µg/mL.

Turning to `CCn1cc(C(=O)OCC2=C(C(=O)O)N3C(=O)[C@@H](NC(=O)/C(=N\OC)c4csc(N)n4)[C@H]3SC2)c(=O)c2ccc(C)nc21` [Compound C, [6R-(6alpha,7beta)(Z)]-7-[[(2-Amino-4-thiazolyl) (methoxyimino)acetyl]amino]-3-[[[(1-ethyl-1,4-dihydro-7-methyl-4-oxo-1,8-naphthyridin-3-yl)carbonyl]oxy]methyl]-8-oxo-5-thia-1-azabicyclo [4.2.0]oct-2-ene-2-carboxylic acid sodium salt], the minimal inhibitory concentration (MIC) in the assay with S. marcescens SM came to 1 µg/mL; in the assay with E. cloacae 7099, 8 µg/mL; against S. aureus Smith, 2 µg/mL; with S. aureus 95, 8 µg/mL; against E. coli 48, 0.5 µg/mL; with P. aeruginosa 503-56 it was 128 µg/mL. The MIC in the assay on P. vulgaris ATCC 6380 (setting [1]) stood at 0.25 µg/mL; against P. mirabilis 190, 0.16 µg/mL; with E. cloacae 2367-2 it was 16 µg/mL; against E. cloacae 9570A it was 2 µg/mL; in the assay with E. cloacae 214 it was 8 µg/mL; with P. aeruginosa Stone 130 it was 128 µg/mL. In the assay with E. cloacae 948-1, this compound yielded an MIC of 8 µg/mL.

For `CCn1cc(C(=O)OCC2=C(C(=O)O)N3C(=O)[C@@H](NC(=O)/C(=N\OC)c4csc(N)n4)[C@H]3SC2)c(=O)c2cc3c(cc21)OCO3` [Compound D, [6R-(6alpha,7beta)(Z)]-7-[[(2-Amino-4-thiazolyl) (methoxyimino)acetyl]amino]-3-[[[(5-ethyl-5,8-dihydro-8-oxo-1,3-dioxolo[4,5-g]quinolin-7-yl)carbonyl]oxy]methyl]-8-oxo-5-thia-1-azabicyclo [4.2.0]oct-2-ene-2-carboxylic acid sodium salt], the MIC against S. marcescens SM came to 0.5 µg/mL; in the assay with E. cloacae 7099 it was 0.5 µg/mL; in the assay with S. aureus Smith it was 2 µg/mL; against S. aureus 95 it was 4 µg/mL; in the assay on P. aeruginosa 503-56, 32 µg/mL; with P. vulgaris ATCC 6380 (ATCC6380, read-out: In vitro MIC) it was 0.063 µg/mL. Besides, the MIC in the assay with P. mirabilis 190 stood at 0.008 µg/mL; with E. cloacae 2367-2 it was 2 µg/mL; against E. cloacae 9570A it was 1 µg/mL; in the assay on E. cloacae 214, 0.5 µg/mL; against P. aeruginosa Stone 130 it was 16 µg/mL; in the assay with E. cloacae 948-1, 1 µg/mL.

As for `CCn1cc(C(=O)OCC2=C(C(=O)O)N3C(=O)[C@@H](NC(=O)COc4ccccc4)[C@H]3SC2)c(=O)c2cc(F)c(N3CCN(C=O)CC3)cc21` [Compound E, [6R-(6alpha,7beta)]-3-[[[[1-Ethyl-6-fluoro-1,4-dihydro-7-(4-formyl-1-piperazinyl)-4-oxo-quinolin-3-yl]-carbonyl]oxy]methyl-8-oxo-7-[(phenoxyacetyl)amino]-5-thia-1-azabicyclo[4.2.0]oct-2-ene-2-carboxylic acid sodium salt], the MIC amounted to 4 µg/mL against S. marcescens SM; 2 µg/mL with K. pneumoniae A; 2 µg/mL with E. cloacae 7099; 0.063 µg/mL in the assay on S. aureus Smith; 2 µg/mL in the assay with S. aureus 95; 32 µg/mL in the assay on P. aeruginosa 503-56. Further, the minimal inhibitory concentration (MIC) in the assay on P. vulgaris ATCC 6380 (setting [1]) is 4 µg/mL; against P. mirabilis 190 it was 0.5 µg/mL; in the assay with E. cloacae 2367-2, 4 µg/mL; against E. cloacae 9570A, 8 µg/mL; in the assay on E. cloacae 214, 8 µg/mL; in the assay on P. aeruginosa Stone 130, 16 µg/mL. Besides, in the assay on E. cloacae 948-1, inhibition of growth (MIC) required 8 µg/mL.

Turning to `CCn1cc(C(=O)OCC2=C(C(=O)O)N3C(=O)[C@@H](NC(=O)Cc4cccs4)[C@H]3SC2)c(=O)c2cc3c(cc21)OCO3` [Compound F, [6R-(6alpha,7beta)]-3-[[[(5-Ethyl-5,8-dihydro-8-oxo-1,3-dioxolo[4,5-g]quinolin-7-yl)carbonyl]oxy]methyl]-8-oxo-7-[(2-thienylacetyl)amino]-5-thia-1-azabicyclo-[4.2.0]oct-2-ene-2-carboxylic acid sodium salt], the MIC against S. marcescens SM was 1 µg/mL; against K. pneumoniae A, 1 µg/mL; against S. aureus 95, 4 µg/mL; with E. coli 48, 2 µg/mL; against P. aeruginosa 503-56 it was 64 µg/mL; with P. vulgaris ATCC 6380 (setting [1]) it was 0.5 µg/mL. In addition, the MIC was determined as 0.5 µg/mL in the assay with P. mirabilis 190; 1 µg/mL against E. cloacae 2367-2; 2 µg/mL with E. cloacae 9570A; 2 µg/mL with E. cloacae 214; 32 µg/mL against P. aeruginosa Stone 130; 1 µg/mL against E. cloacae 948-1.

For the compound `CCn1cc(C(=O)OCC2=C(C(=O)O)N3C(=O)[C@@H](NC(=O)Cc4cccs4)[C@H]3SC2)c(=O)c2cc(F)c(N3CCN(C=O)CC3)cc21` [Compound G, [6R-(6alpha,7beta)]-3-[[[[1-Ethyl-6-fluoro-1,4-dihydro-7-(4-formyl-1-piperazinyl)-4-oxoquinolin-3-yl]-carbonyl]oxy]methyl]-7-[(2-thienylacetyl)amino]-5-thia-1-azabicyclo[4.2.0]oct-2-ene-2-carboxylic acid sodium salt], the minimum inhibitory concentration (MIC) was determined as 4 µg/mL in the assay with S. marcescens SM; 4 µg/mL in the assay on K. pneumoniae A; 2 µg/mL with E. cloacae 7099; 0.25 µg/mL against S. aureus Smith; 4 µg/mL in the assay on S. aureus 95; 8 µg/mL with E. coli 48. For the same compound, the MIC was 64 µg/mL with P. aeruginosa 503-56; 4 µg/mL with P. vulgaris ATCC 6380 (setting [1]); 4 µg/mL in the assay on P. mirabilis 190; 32 µg/mL against E. cloacae 2367-2; 8 µg/mL in the assay with E. cloacae 9570A; 64 µg/mL in the assay with E. cloacae 214. The MIC was determined as 32 µg/mL with P. aeruginosa Stone 130 and 8 µg/mL against E. cloacae 948-1.

In the case of `CCn1cc(C(=O)OCC2=C(C(=O)O)N3C(=O)[C@@H](NC(=O)COc4ccccc4)[C@H]3SC2)c(=O)c2cc(F)c(N3CCCC3)cc21` [Compound H, [6R-(6alpha,7beta)]-3-[[[[1-Ethyl-6-fluoro-1,4-dihydro-7-(1-pyrrolidinyl)-4-oxo-quinolin-3-yl]carbonyl]oxy]methyl]-8-oxo-7-[(phenoxyacetyl)amino]-5-thia-1-azabicyclo[4.2.0]oct-2-ene-2-carboxylic acid sodium salt], the MIC in the assay with S. marcescens SM turned out to be 32 µg/mL; against K. pneumoniae A it was 32 µg/mL; in the assay on E. cloacae 7099, 2 µg/mL; with S. aureus Smith, 0.25 µg/mL; against S. aureus 95, 0.5 µg/mL; in the assay on E. coli 48 it was 32 µg/mL. Further, the MIC was determined as 64 µg/mL in the assay on P. aeruginosa 503-56; 32 µg/mL in the assay with P. vulgaris ATCC 6380 (setting [1]); 0.5 µg/mL with P. mirabilis 190; 32 µg/mL in the assay on E. cloacae 2367-2; 32 µg/mL against E. cloacae 9570A; 32 µg/mL in the assay on E. cloacae 214. In addition, the minimum inhibitory concentration (MIC) in the assay on P. aeruginosa Stone 130 and against E. cloacae 948-1 was 32 µg/mL throughout.

For the compound `CCn1cc(C(=O)OCC2=C(C(=O)O)N3C(=O)[C@@H](NC(=O)/C(=N\OC)c4csc(N)n4)[C@H]3SC2)c(=O)c2cc(F)c(N3CCCC3)cc21` [Compound I, [6R-(6alpha,7beta)(Z)]-7-[[(2-Amino-4-thiazolyl) (methoxyimino)acetyl]amino]-3-[[[[1-ethyl-6-fluoro-1,4-dihydro-7-(1-pyrrolidinyl)-4-oxoquinolin-3-yl]-carbonyl]oxy]methyl]-8-oxo-5-thia-1-azabicyclo[4.2.0]oct-2-ene-2-carboxylic acid sodium salt], the minimal inhibitory concentration (MIC) against S. marcescens SM was determined as 1 µg/mL; against K. pneumoniae A, 0.5 µg/mL; with E. cloacae 7099, 2 µg/mL; against S. aureus Smith it was 0.25 µg/mL; in the assay with S. aureus 95, 0.5 µg/mL; in the assay on E. coli 48 it was 0.5 µg/mL. Further, the MIC against P. aeruginosa 503-56 was 32 µg/mL; in the assay with P. vulgaris ATCC 6380 (setting [1]), 0.5 µg/mL; in the assay on P. mirabilis 190, 0.031 µg/mL; against E. cloacae 2367-2, 4 µg/mL; against E. cloacae 9570A it was 2 µg/mL; against E. cloacae 214, 4 µg/mL. In addition, the MIC in the assay with P. aeruginosa Stone 130 amounted to 8 µg/mL; against E. cloacae 948-1 it was 4 µg/mL.
